{"source": "patent US12213992B2", "about": "“Iron containing composition and use thereof” (RENAPHARMA AB, priority 2018, dated 2025)", "key": {"ferritin": {"test_system": "ferritin", "assay": "Plasma ferritin levels (mouse ELISA kit)", "type": "in vivo, CD1 mice", "conditions": "anaemic mice, 20 mM Fe, 100 μL, 10 days", "procedure": "(§1) After the last dose, the mice were provided with water ad libitum for 18 hours before sacrifice and collection of tissues. Tissues were stored at −70° C. until subjection to various toxicological investigations. […] Tests were made with respect to the following parameters: • 1. Lipid peroxidation (MDA measurement) • 2. GSH levels • 3. Catalase levels • 4. Non-heme iron levels • 5. Plasma ferritin levels Methodology\nIn this assay, the ferritin present in plasma samples reacts with the anti-Ferritin antibodies which have been adsorbed to the surface of polystyrene microliter wells. The assay was performed with a kit provided by Abcam company (Catalogue number, ab157713 Ferritin, mouse ELISA kit). The plasma samples were diluted 1:40 with the assay diluent provided in the kit. The amount of enzyme bound in the complex was measured by the addition of a chromo-genic substrate, 3,3′,5,5′-tetramethylbenzidine (TMB). The colorimetric reaction was measured at 450 nm in a plate reader. The quantity of ferritin in the test sample was interpolated from the standard curve with known concentrations of ferritin."}, "anaemic mice": {"test_system": "anaemic mice", "assay": "Haemoglobin levels in anaemic mice after treatment with oral iron (haemoglobin repletion study)", "type": "in vivo, CD1 mice", "conditions": "10 days of gavage (Fe; 21 mM, 100 μl)", "excerpt": "The procedure for this study was adopted from well established techniques (Kajarabille et al, Brit. J. Nutrition, 117 (2017) 767-774) (FIG. 8). There was a change of haemoglobin levels between the anaemic (12.8±2.4 g/dL) and normal animals (19.55±2.4 g/dL) (FIG. 9).\nMale CD1 mice (3 weeks of age) were made Fe deficient by feeding a low-iron diet of 3-mg Fe/Kg diet based on the modified AIN-76A purified rodent diet (TD.80396; Harlan Teklad) for 3 weeks (i.e., until they were 6 weeks of age). Another group of mice were placed on a normal iron-sufficient diet (48-mg Fe/Kg diet) (TD.80394; Harlan Teklad) to serve as control. The diets were of identical composition except that the iron-sufficient diet contained iron added as ferric citrate. After this, blood was withdrawn from the tails to determine the initial Hb concentrations of the mice. The Fe-deficient mice were then divided into the treatment groups based on similar Hb concentrations. […] After the 10 days, the mice were weighed, anaesthetized, and blood samples were taken for Hb, serum iron, and serum ferritin determinations. The mice were then killed by anaesthesia followed by neck dislocation, and the spleen, duodenum, kidney, and liver samples were excised, snap frozen in liquid nitrogen, and stored at −70° C. until further analysis."}, "catalase": {"test_system": "catalase", "assay": "Toxicity study: catalase levels", "type": "in vivo, CD1 mice", "conditions": "anaemic mice, 20 mM Fe, 100 μL, 10 days; ANOVA one-way test", "procedure": "as §1\n(§2) The collection of the duodenum was achieved by taking the first 5 cm after the pylorus. The section was opened transversally, and the mucosa was removed using a glass slide.\nThe activity of catalase enzyme was detected by using a Catalase Kit (Arbor assay company, Catalogue number K033-H1). Mice tissues were rinsed in PBS to take out the excess of blood and weighed (100 mg of liver or 20 mg duodenal mucosa). The procedure of sample preparation and assay was performed according to manufacturing instructions. The tissue samples were homogenized in ice-cold assay medium with a glass homogenizer, centrifuged at 10,000×g for 15 min at 4 degrees. The supernatant was collected to continue with the assay. A standard with catalase-hydrogen peroxide enzyme was measured within 30 min after reconstitution. The produced colour reaction was read at 450 nm using a plate reader."}, "[1]": {"assay": "Tissue distribution of 59Fe", "type": "in vivo, mouse", "conditions": "iron deficient mice, 4 hours after oral gavage, compared with the other iron source", "procedure": "Anaemic mice were generated using the method of Latunde-Dada et al, J. Nutr. 144 (2014) 1896-902. Mice (3 weeks old) were split into 4 groups (n=6), two groups were fed with normal iron diet (48 mg iron/Kg) and the other two with iron deficient diet (3 mg iron/kg) for 6 weeks. Before the experiment haemoglobin levels were measured to confirm the differences between the normal group and the iron deficient groups. The day before the treatment with ^59Fe labelled iron, all the mice were deprived of food overnight with water ad libitum. Normal (non anaemic) and iron deficient (anaemic) mice were gavaged with either 100 μl of the formulation of Example 4, or with ^59FeSO4-ascorbic acid (1:1) ([Fe]=21 mM). Four hours after the oral gavage the mice were sacrificed and tissues collected.\nThe tissues from the ^59Fe uptake study were used for an investigation of iron distribution (FIGS. 4-7). In the normal animals the majority of the iron is in the “carcase” (probably in blood and lymph)."}, "[2]": {"assay": "Non-heme iron levels in liver", "type": "in vivo, CD1 mice", "conditions": "anaemic mice, 20 mM Fe, 100 μL, 10 days", "procedure": "as §1\nNon-heme iron was assayed according to the method of Foy et al. (Analytical Biochem. 1967; 18:559-563) as modified by Simpson & Peters (Br J Nutr. 1990; 63:79-89). Liver tissue was washed in ice-cold PBS, weighted (70 mg), and homogenized (1:5 w:v) in 0.15M NaCl-HEPES buffer (pH 7.4) with a glass Dounce homogenizer. 100 μl of the resulted extracted was boiled with 200 μl of TCA-sodium pyrophosphate and boil for 10 min, centrifuged at 10,000 RPM and collected the supernatant, the boiled extraction and centrifugation was repeated twice. From the total supernatant collection, 200 μL was mixed with 100 μL 4 of 0.23M ascorbic acid, 80 µL of 10 mM ferrozine and 420 μL of 2.0 M sodium-buffer acetate (pH 4.8). All samples were measured at 562 nm against the blank and compare with standard values."}, "malondialdehyde (MDA)": {"test_system": "malondialdehyde (MDA)", "assay": "Toxicity study: lipid peroxidation (MDA measurement)", "type": "in vivo, CD1 mice", "conditions": "anaemic mice, 20 mM Fe, 100 μL, 10 days; ANOVA one-way test", "procedure": "as §1, §2\nLipid peroxidation was measured by the detection of the endpoint product malondialdehyde (MDA), using the MDA microplate assay kit from Cohesion Biosciences (catalog number CAK1011). Liver tissue (70 mg) or duodenal mucosa (20 mg) were weighed and homogenized in assay buffer according with instructions of the kit manufacturer. All the samples were kept in ice during the assay. The dye reagent (Thiobarbituric acid) was brought at room temperature 30 min before the assay performance. […] The protein concentration of the extracts was analysed with the Bradford assay protocol and the MDA values were normalized against protein content."}, "reduced GSH": {"test_system": "reduced GSH", "assay": "Toxicity study: reduced GSH levels (ELISA)", "type": "in vivo, CD1 mice", "conditions": "anaemic mice, 20 mM Fe, 100 μL, 10 days", "procedure": "as §1, §2\nThe assay was performed according to manufacturer's instructions."}}}
{"smiles": "O=S(=O)([O-])[O-].[Fe+2]", "note": "[FeSO4]", "values": [{"measurement": "plasma ferritin levels", "setting": "ferritin", "value": "lower than that of normal mice"}, {"measurement": "haemoglobin levels", "setting": "anaemic mice", "value": "increased the haemoglobin levels in anaemic mice to those of normal mice"}, {"measurement": "catalase activity in duodenal mucosa", "setting": "catalase", "value": "no statistical differences between the groups"}, {"measurement": "catalase activity in liver", "setting": "catalase", "value": "no statistical differences between the groups"}, {"measurement": "Fe distribution in the liver", "setting": "[1]", "value": "greater distribution of Fe in the liver"}, {"measurement": "non-heme iron levels in liver, Mean", "setting": "[2]", "value": 0.3637, "unit": "nmol/mg"}, {"measurement": "concentration of malondialdehyde (MDA) in duodenal mucosa", "setting": "malondialdehyde (MDA)", "value": "no statistical differences between the groups"}, {"measurement": "concentration of malondialdehyde (MDA) in liver", "setting": "malondialdehyde (MDA)", "value": "no statistical differences between the groups"}, {"measurement": "concentration of reduced GSH in liver", "setting": "reduced GSH; ANOVA one-way test", "value": "no statistical differences between the groups"}, {"measurement": "concentration of reduced GSH in duodenal mucosa", "setting": "reduced GSH; P≤0.05, ANOVA one-way test", "value": "higher levels of GSH in duodenum in comparison with the untreated group"}]}
